Test results from patent US8975235B2, “Lysophosphatidic acid receptor antagonists” (InterMune, Inc., priority 2011, dated 2015).

Legend:
Format in all cases: cell-based
[1] = target: T1, Human LPA1 (Homo sapiens, UniProt Q92633); assay: LPA1 calcium flux assay; design: the full-length cDNA for human LPA1 is obtained by PCR of the reverse transcription reaction; expressed in transfected cells; host or cells: CHO; settings: human LPA1 expressing CHO cells; stimulated with 10 nM LPA; read-out: Ca Flux LPA1 IC50
T1 sequence (Q92633 whole entry): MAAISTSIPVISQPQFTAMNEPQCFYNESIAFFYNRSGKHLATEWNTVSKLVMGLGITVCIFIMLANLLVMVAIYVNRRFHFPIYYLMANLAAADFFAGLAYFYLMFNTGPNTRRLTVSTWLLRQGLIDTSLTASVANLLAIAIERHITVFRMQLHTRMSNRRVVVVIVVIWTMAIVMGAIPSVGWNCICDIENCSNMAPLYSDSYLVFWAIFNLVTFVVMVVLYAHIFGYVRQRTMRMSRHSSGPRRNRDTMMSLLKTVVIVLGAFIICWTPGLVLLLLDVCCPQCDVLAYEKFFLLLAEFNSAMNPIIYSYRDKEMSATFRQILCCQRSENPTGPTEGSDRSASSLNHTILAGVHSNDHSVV
Protocol: Establishment of a CHO Cell Line Stably Expressing Human LPA1
A 1.1 kb cDNA encoding the human LPA1 receptor is cloned from human lung. Human lung RNA (Clontech Laboratories, Inc. USA) is reverse transcribed using the RETROscript kit (Ambion, Inc.) and the full-length cDNA for human LPA1 is obtained by PCR of the reverse transcription reaction. The nucleotide sequence of the cloned human LPA1 is determined by sequencing and is confirmed to be identical to the published human LPA1 sequence (An et al. Biochem. Biophys. Res. Commun. 231:619 (1997). The cDNA is cloned into the pcDNA5 pcDNA5/FRT expression plasmid and is transfected in CHO cells using lipofectamine 2000 (Invitrogen Corp., USA). Clones stably expressing human LPA1 are selected using hygromycin and identified as cells that show Ca-influx in response to LPA.
(§1) LPA1 and LPA3 Calcium Flux Assays
(§2) Human LPA1 or LPA3 expressing CHO cells were seeded at 20,000-45,000 cells per well in a 96-well poly-D-lysine coated plate one or two days before the assay. Prior to the assay, the cells were washed once with PBS and then cultured in serum-free media overnight. On the day of the assay, a calcium indicator dye (Calcium 4, Molecular Devices) in assay buffer (HBSS with Ca^2+ and Mg^2+ and containing 20 mM Hepes and 0.3% fatty-acid free human serum albumin) was added to each well and incubation continued for 1 hour at 37° C. 10 μl of test compounds in 2.5% DMSO were added to the cells and incubation continued at room temperature for 30 minutes. Cells were then stimulated by the addition of 10 nM LPA and intracellular Ca^2+ measured using the Flexstation 3 (Molecular Devices). IC50s were determined using Graphpad prism analysis of drug titration curves.

[2] = target: T1, Human LPA1; assay: Beta-Arrestin based assay for human LPA1R antagonists (PathHunter); design: host or cells: CHO; settings: CHO cells stably expressing ProLink tagged human LPA1R; agonist LPA 0.5 micromolar
Outline: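 CHO cells stably expressing ProLink-tagged human LPA1R with β-arrestin–EA fusion, assayed by β-galactosidase complementation. Antagonists tested against 0.5 micromolar LPA ([…]), in quadruplicate. End-point luminescence fitted to a 4-parameter logistic to give IC50.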

[3] = target: T2, Human LPA3 (Homo sapiens, UniProt Q9UBY5); assay: LPA3 calcium flux assay; settings: human LPA3 expressing CHO cells; stimulated with 10 nM LPA; read-out: Ca Flux LPA3 IC50
T2 construct: The full-length cDNA fragment for human LPA3 is obtained by PCR from the vector; expressed in transfected cells; host or cells: CHO
T2 sequence (Q9UBY5 1-353): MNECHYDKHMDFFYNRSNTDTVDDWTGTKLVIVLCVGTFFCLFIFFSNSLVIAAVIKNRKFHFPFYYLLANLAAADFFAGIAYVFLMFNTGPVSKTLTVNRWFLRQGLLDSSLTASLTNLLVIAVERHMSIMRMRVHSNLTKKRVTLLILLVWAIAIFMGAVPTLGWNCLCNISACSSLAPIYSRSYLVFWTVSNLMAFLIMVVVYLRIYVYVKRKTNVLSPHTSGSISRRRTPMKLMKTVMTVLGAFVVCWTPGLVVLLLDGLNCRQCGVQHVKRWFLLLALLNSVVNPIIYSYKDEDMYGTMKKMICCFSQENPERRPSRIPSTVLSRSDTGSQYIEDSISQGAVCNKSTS
Protocol: Establishment of a CHO Cell Line Stably Expressing Human LPA3
A vector containing the human LPA3 receptor cDNA is obtained from the Missouri S&T cDNA Resource Center (www.cdna.org). The full-length cDNA fragment for human LPA3 is obtained by PCR from the vector. The nucleotide sequence of the cloned human LPA3 is determined by sequencing and is confirmed to be identical to the published human LPA3 sequence (NCBI accession number NM_012152). The cDNA is cloned into the pcDNA5 pcDNA5/FRT expression plasmid and is transfected in CHO cells using lipofectamine 2000 (Invitrogen Corp., USA). Clones stably expressing human LPA3 are selected using hygromycin and identified as cells that show Ca-influx in response to LPA.
as §1, §2

Structure (SMILES)	IC50 [1]	EC50 [2]	IC50 [3]
Cc1nsc(-c2ccc(-c3ccc(C(C(=O)O)c4ccccc4)cc3)cc2)c1NC(=O)O[C@H](C)c1ccccc1Cl (single isomer, unassigned) [Compound 71]	> 500 nM	50 to 500 nM	–
Cc1noc(-c2ccc(-c3ccc(CC(=O)O)cc3)cc2)c1NS(=O)(=O)c1ccccc1 [Compound 19]	> 500 nM	> 500 nM	–
Cc1nsc(-c2ccc(-c3ccc(CC(=O)O)cc3)cc2)c1NC(=O)O[C@H](C)c1ccccc1Cl [Compound 20]	< 50 nM	50 to 500 nM	> 500 nM
Cc1nsc(-c2ccc(-c3ccc(C4(C(=O)O)CC4)cc3)cc2)c1NC(=O)OCc1ccccc1Cl [Compound 46]	50 to 500 nM	50 to 500 nM	–
C[C@@H](OC(=O)Nc1c(-c2ccc(-c3ccc(C4(C(=O)O)CC4)cc3)cc2)oc2ccc(F)cc12)c1ccccc1Cl [Compound 60]	> 500 nM	50 to 500 nM	–
C[C@@H](OC(=O)Nc1ccn(-c2ccc(-c3ccc(C4(C(=O)O)CC4)cc3)cc2)n1)c1ccccc1Cl [Compound 68]	> 500 nM	> 500 nM	–
Cc1noc(-c2ccc3c(c2)CCc2cc(CC(=O)O)ccc2-3)c1NC(=O)O[C@H](C)c1ccccc1Cl [Compound 78]	50 to 500 nM	50 to 500 nM	–
Cc1noc(-c2ccc(-c3ccc(C4CCOCC4C(=O)O)cc3)cc2)c1NC(=O)O[C@H](C)c1ccccc1Cl (stereo partly shown) [Compound 79]	50 to 500 nM	< 50 nM	–
Cc1nsc(C#Cc2ccc(C3(C(=O)O)CC3)cc2)c1NC(=O)O[C@H](C)c1ccccc1Cl [Compound 81]	< 50 nM	< 50 nM	–
Cc1nsc(C#Cc2ccc(C3(C(=O)O)CC3)cc2)c1NC(=O)O[C@H](C)c1ccccc1 [Compound 82]	> 500 nM	50 to 500 nM	–
C[C@@H](OC(=O)Nc1c(-c2cc(Cl)c(-c3ccc(C4(C(=O)O)CC4)cc3)cc2F)cnn1C)c1ccccc1 [Compound 201]	< 50 nM	< 50 nM	–
Cc1nsc(-c2ccc(-c3ccc(C4(C(=O)O)COC4)cc3)cc2)c1NC(=O)O[C@H](C)c1ccccc1 [Compound 241]	50 to 500 nM	50 to 500 nM	–
CCCC(=O)Nc1ccnc(-c2ccc(-c3ccc(CC(=O)O)cc3)cc2)c1 [reference compound]	–	> 500 nM	–
CCCCC(=O)NCC(=O)c1ccc(-c2ccc(CC(=O)O)cc2)cc1 [reference compound]	–	> 500 nM	–
CC(=O)Nc1ccnc(-c2ccc(-c3ccc(CC(=O)O)cc3)cc2)c1 [reference compound]	–	> 500 nM	–
CCC(=O)Nc1ccnc(-c2ccc(-c3ccc(CC(=O)O)cc3)cc2)c1 [reference compound]	–	> 500 nM	–
O=C(O)Cc1ccc(-c2ccc(-c3cc(NC(=O)C4CCCC4)ccn3)cc2)cc1 [reference compound]	–	> 500 nM	–
CC(C)NC(=O)Nc1ccnc(-c2ccc(-c3ccc(CC(=O)O)cc3)cc2)c1 [reference compound]	–	> 500 nM	–
CCCOC(=O)NCC(=O)c1ccc(-c2ccc(CC(=O)O)cc2)cc1 [reference compound]	–	> 500 nM	–
CC(C)NC(=O)Nc1ncncc1-c1ccc(-c2ccc(CC(=O)O)cc2)cc1 [reference compound]	–	> 500 nM	–

More lines, now with the values ahead:

IC50 [1]	EC50 [2]	IC50 [3]	Structure (SMILES)
< 50 nM	< 50 nM	50 to 500 nM	Cc1noc(-c2ccc(-c3ccc(C(C(=O)O)c4ccccc4)cc3)cc2)c1NC(=O)O[C@H](C)c1ccccc1Cl (single isomer, unassigned) [Compound 14]
> 500 nM	< 50 nM	–	Cc1nsc(-c2ccc(-c3ccc(C(C(=O)O)c4ccccc4)cc3)cc2)c1NC(=O)O[C@H](C)c1ccccc1Cl (single isomer, unassigned) [Compound 70]
50 to 500 nM	< 50 nM	50 to 500 nM	Cc1noc(-c2ccc(-c3ccc(CC(=O)O)c4ccccc34)cc2)c1NC(=O)O[C@H](C)c1ccccc1Cl [Compound 6]
< 50 nM	< 50 nM	–	Cc1onc(-c2ccc(-c3ccc(C4(C(=O)O)CC4)cc3)cc2)c1NC(=O)O[C@H](C)c1ccccc1Cl [Compound 30]
< 50 nM	< 50 nM	–	Cc1nsc(-c2ccc(-c3ccc(C4(C(=O)O)CC4)cc3)cc2)c1NC(=O)O[C@H](C)c1ccccc1 [Compound 44]
< 50 nM	< 50 nM	–	Cc1nsc(-c2ccc(-c3ccc(C4(C(=O)O)CC4)cc3)cc2)c1NC(=O)OCc1ccccc1 [Compound 45]
50 to 500 nM	< 50 nM	–	Cc1snc(-c2ccc(-c3ccc(C4(C(=O)O)CC4)cc3)cc2)c1NC(=O)O[C@H](C)c1ccccc1Cl [Compound 56]
> 500 nM	< 50 nM	–	C[C@@H](OC(=O)Nc1c(-c2ccc(-c3ccc(C4(C(=O)O)CC4)cc3)cc2)oc2cc(F)ccc12)c1ccccc1Cl [Compound 61]
50 to 500 nM	< 50 nM	–	Cc1nnn(-c2ccc(-c3ccc(C4(C(=O)O)CC4)cc3)cc2)c1NC(=O)O[C@H](C)c1ccccc1Cl [Compound 64]
< 50 nM	< 50 nM	–	C[C@@H](OC(=O)Nc1ccnn1-c1ccc(-c2ccc(C3(C(=O)O)CC3)cc2)cc1)c1ccccc1Cl [Compound 67]
50 to 500 nM	< 50 nM	–	Cc1noc(-c2ccc(-c3ccc(C4(C(=O)O)COC4)cc3)cc2)c1NC(=O)O[C@H](C)c1ccccc1 [Compound 80]
50 to 500 nM	< 50 nM	–	Cc1nsc(-c2ccc(-c3ccc(C4(C(=O)O)CC4)cc3)cc2)c1NC(=O)O[C@H](C)c1ccccc1F [Compound 83]
50 to 500 nM	< 50 nM	–	Cc1ccccc1[C@@H](C)OC(=O)Nc1c(C)nsc1-c1ccc(-c2ccc(C3(C(=O)O)CC3)cc2)cc1 [Compound 86]
< 50 nM	< 50 nM	–	Cc1snc(-c2ccc(-c3ccc(C4(C(=O)O)CC4)cc3)cc2)c1NC(=O)O[C@H](C)c1ccccc1 [Compound 105]
< 50 nM	< 50 nM	–	C[C@@H](OC(=O)Nc1scnc1-c1ccc(-c2ccc(C3(C(=O)O)CC3)cc2)cc1)c1ccccc1Cl [Compound 107]
< 50 nM	< 50 nM	–	Cc1noc(-c2ccc3cc(C#CC4(C(=O)O)CC4)ccc3c2)c1NC(=O)O[C@H](C)c1ccccc1 [Compound 140]
50 to 500 nM	< 50 nM	–	C[C@@H](OC(=O)Nc1ocnc1-c1ccc(-c2ccc(C3(C(=O)O)CC3)cc2)cc1)c1ccccc1Cl [Compound 147]
50 to 500 nM	< 50 nM	–	Cc1nsc(-c2cc(Cl)c(-c3ccc(C4(C(=O)O)CC4)cc3)cc2F)c1NC(=O)O[C@H](C)c1ccccc1 [Compound 179]
< 50 nM	< 50 nM	–	Cc1nsc(-c2cc(F)c(-c3ccc(C4(C(=O)O)CC4)cc3)cc2F)c1NC(=O)O[C@H](C)c1ccccc1 [Compound 182]
< 50 nM	< 50 nM	–	Cc1nsc(-c2ccc(-c3ccc(C4(C(=O)O)CC4)cc3)c(F)c2)c1NC(=O)O[C@H](C)c1ccccc1 [Compound 185]
50 to 500 nM	< 50 nM	–	C[C@@H](OC(=O)Nc1c(-c2cc(F)c(-c3ccc(C4(C(=O)O)CC4)cc3)cc2F)cnn1C)c1ccccc1 [Compound 200]
50 to 500 nM	< 50 nM	–	Cc1noc(-c2ccc(-c3ccc(C4(C(=O)O)CCOCC4)cc3)cc2)c1NC(=O)O[C@H](C)c1ccccc1 [Compound 242]
